Source: PMC4142417, “Epigenetic Impacts of Ascorbate on Human Metastatic Melanoma Cells” (Frontiers in Oncology, 2014)
Like-named read-outs stand apart in the source and are kept apart here.

Key:
[1] = test system: human HDACs (HeLa nuclear extract); test: HDAC-inhibitor screening assay with HeLa nuclear extract; type: biochemical; settings: 5–8000 μM, 2 h at 37°C
Description: Determination of a possible HDAC-inhibitor activity of ascorbate was done by using the HDAC assay kit (Active Motif, Rixensart, Belgium). Ascorbate was diluted in assay buffer to the final concentrations of 5, 10, 20, 50, 100, 200 μM, and 8 mM. Assay was performed according to manufacturer’s protocol. Briefly, ascorbate was incubated with HeLa nuclear extract as a source of human HDACs for 2 h at 37°C and the developing time was set to 10 min. Each experiment was performed in triplicates and repeated three times.
(A) Overall HDAC inhibition in cellular extracts of the human cell line HeLa by increasing concentrations of ascorbate (5–8000 μM). As reference inhibitor 100 μM suberoylanilide hydroxamic acid (SAHA) was used. Every concentration was tested three times in triplicates. (B) Specific fluorometric profiling assay using recombinant human HDACs of classes I, II, and IV. Specific inhibition values were generated for the treatment with 50 μM and 8 mM ascorbate. Inhibition values for every HDAC were yielded by two experiments, each performed in duplicates. Shown are mean ± SD. One-way ANOVA Dunnett’s multiple comparison test, n.s. indicates not significant.

[2] = test system: 60 cancer cell lines of the NCI60 panel; set-up: method as in PMID 24330097; settings: ref [5], read-out: overall IC50 of all 60 cancer cell lines; cited from earlier work
[3] = test system: DNA methyltransferase (DNMT) activity in MeWo melanoma cells; test: DNMT activity in nuclear extracts of treated MeWo cells; type: cell-based, human; settings: 200 μM for 1 h, nuclear extract 12 h after treatment
Description: (§1) DNMT activity was analyzed in the nuclear extracts with the DNMT activity/inhibition assay (Active Motif) according to the procedure described by the manufacturer.
(§2) Global DNMT activity was determined in nuclear extracts of MeWo and BLM cells 12 h after 1 h treatment with 200 μM or 8 mM ascorbate.

[4] = test system: human HDAC1, HDAC2, HDAC3, HDAC4, HDAC5, HDAC6, HDAC7, HDAC8, HDAC9, HDAC10, and HDAC11; test: HDAC-inhibitor profiling assay (fluorometric, recombinant HDACs of classes I, II, and IV); type: biochemical; settings: 50 μM and 8 mM ascorbate
Description: The HDAC profiling assay was performed on basis of fluorometric measurement by Scottish Biomedical (Scottish Biomedical, Glasgow, UK). The percentage inhibition values of 50 μM and 8 mM ascorbate against human HDAC1, HDAC2, HDAC3, HDAC4, HDAC5, HDAC6, HDAC7, HDAC8, HDAC9, HDAC10, and HDAC11 was determined. Both concentrations of ascorbate were tested in two experiments, each in duplicates.

[5] = test system: 9 human melanoma cell lines; set-up: method as in PMID 24330097; settings: ref [5], cited from earlier work
[6] = test system: LOX-IMVI melanoma cells; set-up: method as in PMID 24330097; settings: 8 mM, ref [5]; cited from earlier work
[7] = test system: DNA methyltransferase (DNMT) activity in BLM melanoma cells; test: DNMT activity in nuclear extracts of treated BLM cells; type: cell-based, human; settings: 200 μM for 1 h, nuclear extract 12 h after treatment
Description: as §1, §2

[8] = set-up: method as in PMID 23670640; settings: i.v. administration of 70 g/m^2; ref [16]; cited from earlier work
[9] = test system: BLM melanoma cells; test: Cell-cycle analysis (propidium iodide, FACS); type: cell-based, human; settings: 8 mM for 1 h
Description: BLM cells were incubated with ascorbate at 8 mM. After 0–24 h (in 2 h intervals) the cells (1 × 10^6) were harvested, washed with cold PBS, fixed with 75% ethanol, and incubated at 4°C for at least 1 h. Cells were then centrifuged and washed twice in cold PBS. Intracellular DNA was labeled with propidium iodide solution [propidium iodide […] (Sigma) and RNase […] (Thermo Scientific) in PBS] and incubated at 4°C for 30 min in the dark. Cell cycle was analyzed using flow cytometry and FACSDiva software (BD Biosciences, Heidelberg, Germany). As shown previously ([5]), pharmacological doses of ascorbate in the low millimolar-range induce cell death in human cancer cells. However, since in the latter publication we only performed end-point analyses 24 h after incubation of the cells with ascorbate, for the current project we exposed BLM cells to pharmacological 8 mM ascorbate for 1 h, and the cells were ethanol-fixed every 2 h for 24 h to closely monitor cell-cycle alterations at 2 h intervals over 24 h. The cell cycle was analyzed with FACS after staining of the cells with propidium iodide. […] At 12 h post ascorbate exposure only a small percentage of the BLM cells were shifted toward the sub-G1 fraction of cells. Therefore, the 12 h time point after ascorbate exposure was chosen for the following experiments.  Figure 2 Pharmacological ascorbate induces apoptosis in human metastatic BLM melanoma cells in a time-dependent manner. BLM cells were treated with 8 mM ascorbate for 1 h. Cells were ethanol-fixed every 2 h for 24 h, stained with propidium iodide, and cell cycle was analyzed with FACS. Depicted are the FACS plots for the untreated control cells and for 2, 4, 6, 8, 12, 16, 20, and 24 h after ascorbate exposure. […] Gray colored graphs indicate the control cells; black colored graphs (2–8 h) the initial shift into G2/M phase; red colored graphs (12–24 h) the subsequent shift into sub-G1 fraction.

[10] = test system: GLUT-1 expression (HIF-1α downstream target) in melanoma cell lines; set-up: method as in PMID 24330097; settings: treatment at the individual IC50 concentrations, ref [5]; cited from earlier work
[11] = test system: miRNA expression in BLM melanoma cells; test: miRNA expression chip analysis; type: cell-based, human
Description: microRNA was isolated from BLM cells using the miRNeasy kit (Qiagen, Hilden, Germany) according to the procedure described by the manufacturer. miRNA expression analysis was performed on BLM melanoma cells (five groups: untreated; 200 μM, 8 mM ascorbate treated, 4 and 12 h after the 1 h treatment, all in triplicates) using the human miRNA Microarray Release 14.0, 8x15K (Agilent, Waldbronn, Germany) based on Sanger miRbase (release 14.0). Two hundred nanograms of RNA were used per sample. The miRNA expression analysis was kindly performed at the Genomic Core Facility of the European Molecular Biology Laboratory (EMBL, Heidelberg, Germany) according to the supplier’s instructions. Evaluation of raw data generated at the Genomic Core Facility of the EMBL was performed as described previously ([32]).
Figure 6 Ascorbate alters the expression of miRNA in melanoma cells. A miRNA expression chip analysis was performed on human metastatic BLM melanoma cells (5 groups: untreated, 200 μM ascorbate, 8 mM ascorbate, both 4 and 12 h after ascorbate exposure; all in triplicates) using the human miRNA Microarray Release 14.0, 8x15K (Agilent Technologies) based on Sanger miRbase (release 14.0). A total of 151 miRNAs were differentially expressed in response to ascorbate.

[12] = 8 mM vs. 200 μM for 1 h, after 12 h
[13] = 12 h after 1 h exposure, 8 mM vs. 200 μM ascorbate

## O=C1O[C@H]([C@@H](O)CO)C(O)=C1O [ascorbate, ascorbic acid]
[1]
  overall HDAC inhibition: only a marginal inhibitory activity
[2]
  IC50: 4.5 mM
[3]
  increase of DNMT activity: 4%
[4]
  inhibition of the 11 human HDACs: neither the physiological 50 μM nor the pharmacologic 8 mM ascorbate showed a significant inhibition
[5]; NCI60 melanoma cell lines
  IC50 for all melanoma cell lines: low millimolar range
[5]; NCI60 melanoma cell lines, read-out: IC50 for all melanoma cell lines
  IC50: 3.1 mM
[5]; NCI60 melanoma cell lines, read-out: IC50 range across melanoma cell lines
  IC50: 0.2 to 8.5 mM
[5]; physiological ascorbate (200 μM)
  cytotoxic effect on melanoma cells: no cytotoxic effect
[6]
  intracellular peroxide radicals: high amount
  percentage of sub-G1 (apoptotic) cells determined by FACS: increased percentage
[7]
  increase of DNMT activity: 18%
[8]
  blood peak concentration: up to 49 mM
[9]; 2 to 8 h after exposure
  G2/M fraction of cells: steadily increased
[9]; 12 h post-treatment
  sub-G1 fraction of DNA fragmented cells (indicative for apoptosis): prominent increase
[9]; 20 h post-treatment
  cell cycle shift toward sub-G1 fraction: completely shifted toward the sub-G1 fraction
[10]
  GLUT-1 expression: decreased
[11]; 200 μM or 8 mM for 1 h, 4 and 12 h after exposure
  number of miRNAs differentially expressed in response to ascorbate: 151
[11]; [12]
  number of up-regulated miRNAs: 32
  up-regulation of the 32 miRNAs: 4- to 38 fold
[11]; [13]
  Up-regulation of hsa-miR-99b: 2.44 2 × log^2
  Up-regulation of hsa-miR-125b-2: 2.8 2 × log^2
  Up-regulation of hsa-miR-134: 2.15 2 × log^2
  Up-regulation of hsa-miR-135a: 2.45 2 × log^2
  Up-regulation of hsa-miR-339-3p: 2.47 2 × log^2
  Up-regulation of hsa-miR-345: 2.82 2 × log^2
  Up-regulation of hsa-miR-375: 3.65 2 × log^2
  Up-regulation of hsa-miR-422a: 4.29 2 × log^2
  Up-regulation of hsa-miR-490-5p: 3.91 2 × log^2
  Up-regulation of hsa-miR-516a-3p: 2.56 2 × log^2
  Up-regulation of hsa-miR-564: 3.28 2 × log^2
  Up-regulation of hsa-miR-583: 3.97 2 × log^2
  Up-regulation of hsa-miR-596: 5.26 2 × log^2
  Up-regulation of hsa-miR-614: 2.61 2 × log^2
  Up-regulation of hsa-miR-617: 2.33 2 × log^2
  Up-regulation of hsa-miR-629: 3.38 2 × log^2
  Up-regulation of hsa-miR-630: 4.3 2 × log^2
  Up-regulation of hsa-miR-654-5p: 3.39 2 × log^2
  Up-regulation of hsa-miR-662: 3.59 2 × log^2
  Up-regulation of hsa-miR-663: 2.05 2 × log^2
  Up-regulation of hsa-miR-708: 3.48 2 × log^2
  Up-regulation of hsa-miR-718: 2.97 2 × log^2
  Up-regulation of hsa-miR-887: 5.14 2 × log^2
  Up-regulation of hsa-miR-1181: 2.06 2 × log^2
  Up-regulation of hsa-miR-1225-5p: 2.38 2 × log^2
  Up-regulation of hsa-miR-1228: 2.24 2 × log^2
  Up-regulation of hsa-miR-1246: 2.13 2 × log^2
  Up-regulation of hsa-miR-1268: 2.84 2 × log^2
  Up-regulation of hsa-miR-1915: 2.22 2 × log^2
  Up-regulation of hsa-miR-1972: 2.22 2 × log^2
  Up-regulation of hsa-miR-1973: 3.08 2 × log^2
  Up-regulation of hsa-miR-2117: 2.65 2 × log^2
